Results reported in patent publication US20250275993A1, “GLYCOSYLATION INHIBITORS AS THERAPEUTICS FOR STROKE” (The Regents of the University of California, priority 2022, published 2025).

Assays:
[1] = system: BCEC confluent monolayers; assay: BCEC scratch assay; assay type: cell-based, bovine; details: 40 μM ManN or 50 ng/ml of VEGF; after 48 hours
Protocol: BCECs (passage 6-10) and HUVEC (passage 6-8) were used in this assay. Cells were grown until about 80% confluency in 6-well plates, washed twice with PBS and then starved in serum-free DMEM (low Glucose, Hyclone) for 5 hrs before making a “scratch” using 1 ml tip. Cell monolayers were briefly washed once with serum-free media, followed by various treatments in media containing 1% FBS. 48 hrs later, the assay was stopped by adding 2 ml 4% paraformaldehyde. 20 min later, fixed cells were stained with 1 ml Crystal Violet (Sigma). Plates were washed gently under the running tap water and air-dried before taking pictures. Images were acquired by ZEISS Discovery […] microscopy equipped with […] camera. Quantification of wound closure was done using AxioVision LE Rel.4.4 software. Six images were taken for each sample and six measurements (in pixel) were made on each image using AxioVision LE Re1.4.4 software.

VEGFR2 = VEGFR2 western blot in BCECs (molecular mass, phosphorylation, PNGase F); assay type: cell-based, bovine; details: VEGF at 5 ng/ml for 24 hours
Protocol: Glycerol-free PNGase F was obtained from New England Biolabs (Ipswich, MA). Briefly, BCECs were lysed with NP-40 containing proteinase inhibitors (Thermo Scientific, Waltham, MA). Lysates were cleared at 4° C. at 5000 g for 25 mins. Total protein content was measured using Pierce BCA protein assay kit (Thermo Scientific). 20 mg of protein was mixed with 10× denaturing buffer and H2O to a total volume of […]. Glycoproteins were denatured at 100° C. for 10 mins, followed by adding Glycobuffer and PNGase F. The reaction was carried out at 37° C. for 2 hr.
Cells were allowed to reach-80% confluency in 12-well plates. […] At various time points, plates were taken out of the incubator and kept on ice. […] Lysates were collected and mixed with 4× Bolt LDS Sample Buffer (Novex, Carlsbad, CA) in the presence of Halt protease inhibitors and phosphatase inhibitor cocktail (ThermoFisher scientific, #NP0007). […] HUVECs (passage 6-8) were plated in EBM-2 basal medium (Lonza) with 0.2% FBS. Following overnight culture, cells were serum-starved in EBM-2 medium for 4 hrs prior to treatment with 50 ng/ml of VEGF165 or vehicle controls for various lengths. Equal amounts of protein lysates were analyzed by SDS-PAGE and blotted with the indicated antibodies. Proteins were transferred using Tris-Glycine buffer with 20% Methanol (Proteonomics grade) (Apex BioResearch Products). Membranes were first incubated with 5% milk in TBST, pH 7.6 (TEKnova, Hollister, CA), followed by blotting with primary and secondary antibodies. ECL anti-rabbit IgG, horseradish peroxidase linked whole antibody from donkey or sheep anti-mouse were obtained from GE Healthcare (UK limited). SuperSignal West Dura Extended Duration substrate was from ThermoFisher Scientific. In some cases, the same PVDF membranes were stripped by 8-min incubation in the Restore Plus Western Blot Stripping Buffer (ThermoFisher Scientific) to show total specific protein expression, followed by second stripping for (3-actin expression.

skin wound = assay: Skin wound healing model (splinted wound); assay type: in vivo, mouse; details: topical 20 μg daily; mice; PBS group 81.5%
Description: The model has been previously described. Briefly, C57BL/6 female mice (8-10 weeks old) were obtained from Jackson labs (Sacramento, CA). A fresh, full-thickness punch wound (4 mm diameter) using a punch (Acu Punch, Acuderm inc. Ft. Lauderdale, FL) splinted with a sterile neoprene ring (6-mm outer diameter and 4-mm inner diameter), fastened with 5-6 sutures (4-0 nylon) under the influence of Isoflurane was created on the back of the animal in a Class II Biological Safety Cabinet. For all surgical procedures, sterile technique was followed. Buprenorphine was given subcutaneously prior to awakening from anesthesia for anticipated pain. Mice were monitored until fully awake and were housed individually to minimize damage/biting/fighting to the surgical site. […] Treatment agents were prepared in PBS, sterile-filtered and 25 μl solution was applied daily directly to a wound bed for the first 4-5 days under the influence of Isoflurane, followed by daily observation. Wound closure was monitored by regular imaging and the wound area was quantified using ImageJ (National Institutes of Health, Bethesda, MD, USA). […] Epithelial gap was measured histomorphometrically using AxioVision LE Rel.4.4 software. […] Small vessels stained positive for CD31 were counted microscopically on 10 fields (20×) taken around the wound.

## VEGF
[1]
  closure of the scratched area vs control: significantly accelerated BCEC migration and/or proliferation
VEGFR2
  effect of VEGF alone on VEGFR2 molecular mass: no effect on molecular mass
Skin wound
  average closure of the wound on day 4: 66.9%
